The nature of this series: Properties of the drug substance (solubility, BCS class, stability). Format: physicochemical.

SMILES strings stand for the structures. “Also recorded” adds a separate entry of the source.

On to `COC(=O)[C@H](c1ccccc1Cl)N1CC[C@@H]2SC(=O)C=C2C1` [(7aS, 2′S)-2-oxo-clopidogrel, methyl (S)-2-(2-chlorophenyl)-2-((S)-2-oxo-2,6,7,7a-tetrahydrothieno[3,2-c]pyridin-5 (4H)-yl)acetate], for which the BCS biopharmaceutical classification result was “low-solubility and high-permeability”; the “stability of the drug substance (in words)” value is “extremely prone to oxidative degradation; also recorded: instability under high temperature, acid and alkali conditions”. Moreover, the solubility in acetonitrile result (acetonitrile) is reported as “soluble”. In addition, under “methanol”, the solubility in methanol entry is listed as “slightly soluble”. In addition, where the note is “water”, the solubility in water entry is on record as “almost insoluble”.

The record behind these values is patent publication US20260191836A1, “SOLID PREPARATION CONTAINING OXIDIZED CLOPIDOGREL AND PREPARATION METHOD THEREFOR” (CHENGDU SHIBEIKANG BIOMEDICAL TECHNOLOGY CO., LTD., priority 2022, published 2026).
